Measured values from US6391872B1, “Indazole bioisostere replacement of catechol in therapeutically active compounds” (Pfizer Inc, priority 1997, dated 2002).

| SMILES | melting point [°C] |
| --- | --- |
| CCc1nn(-c2ccc(F)cc2)c2cc(C3=CCC(C(=O)O)CC3)ccc12 (stereo not drawn) [Example 28, 4-(3-ethyl-1-(4-fluorophenyl)-1H-indazol-6-yl)-cyclohex-3-ene-carboxylic acid] | 214 to 216 |
| CCc1nn(-c2ccc(F)cc2)c2cc(Br)ccc12 [Example 24, 6-Bromo-3-ethyl-1-(4-fluorophenyl)-1H-indazole] | 72 to 73 |
| CCc1nn(C2CCCC2)c2cc(C3(C#N)CCC(=O)CC3)ccc12 [Example 6, 1-(1-Cyclopentyl-3-ethyl-1H-indazol-6-yl)-4-oxo-cyclohexanecarbonitrile] | 81 to 89 |
